# Reference: a melting point compilation (Tetko et al.; mined from patent text by program, amines drawn as free bases though some values may be those of a salt)
row,Compound,melting point [°C]
1,CCS(=O)(=O)C(F)(F)c1nnc(OCC(=O)N(C)c2ccccc2)s1,103 to 104
2,CC(C)Oc1ccc(CCCOc2cc(CCC(=O)O)n(C(C)C)n2)c(Oc2ncc(C(F)(F)F)cc2Cl)c1,128
3,O=C1c2ccc(OCCN3CCOCC3)cc2C(=O)c2ccc(OCCN3CCOCC3)cc21,200 to 201
4,Cc1c(Cc2ccc(N3C(=O)C=CC3=O)c(C)c2C)ccc(N2C(=O)C=CC2=O)c1C,210 to 220
5,Cc1oc2c(Br)cc(C=O)cc2c1C,126
6,COC(=O)c1ccncc1C(=O)c1ccc(-n2ccnc2)cc1,125 to 128
7,NS(=O)(=O)c1nn(-c2ccccn2)cc1Br,145 to 146
8,Cc1sc(-c2ccccc2)nc1COc1ccc(COc2ncccc2CC#N)cc1,161 to 162
9,CCOC(=O)OC1C(=O)N(CCN(C)C)c2ccc3ccccc3c2SC1c1ccc(OC)cc1 (stereo not given),168 to 169
10,N#Cc1ccc(-c2cn(-c3ccc(Br)cc3)c(SCc3cccnc3)n2)cc1,177 to 178
11,COC1=C(C)C(=O)C2=C(C1=O)C(COC(N)=O)C1(OC)C3NC3CN21 (stereo not given),161
12,N#Cc1cnn2c1N(C(=O)CN1CCN(C(=O)Nc3ccc(Cl)c(Cl)c3)CC1)CC=C2c1cccc(C(F)(F)F)c1,204 to 206
13,O=C1c2ccccc2C(=O)N1CCCCOc1ccc([N+](=O)[O-])cc1,112 to 114
14,CC(=O)Oc1cc(OCC(=O)c2ccc3c(c2)C(C)(C)CCC3(C)C)ccc1C(=O)OCc1ccccc1,137 to 138
15,O=Cc1ccccc1-c1noc2ccccc12,149
16,O=S1(=O)c2ccccc2Oc2cc(OCC(F)(F)F)ccc21,165 to 166
17,CCC#CCOc1ccc(/C=C/C(=O)Nc2ccccc2C(=O)O)cc1OC,186
18,Cc1nc2cccc(OCC(C)(C)C(=O)NC3CC3)c2c(N)c1C(=O)O,227 to 229
19,CC(=O)c1c([N+](=O)[O-])[nH]c(-c2ccncc2)c1C,187 to 188
20,Cn1c(-c2ccc(C(=O)O)cc2)cc2cc3c(cc21)C(C)(C)CCC3(C)C,288 to 289
21,NNc1ccc(-c2ccc(Cl)cc2)nn1,176 to 180
22,Cc1cccc([N+](=O)[O-])c1CNc1cccn2c(Cl)c(C)nc12,142 to 144
23,CCCCC(=O)N(Cc1ccc(-c2ccccc2-c2nnn[nH]2)cc1)C(C(=O)O)c1ccccc1 (stereo not given),145 to 148
24,CCCCCCc1cnc(-c2ccc(CCCCC)c(F)c2)nc1,30

row,Compound,melting point [°C]
1,CN(c1cccc2cc(C3=NCC(C)(C(N)=O)S3)[nH]c12)S(=O)(=O)c1cccs1 (stereo not given),248 to 249
2,COc1cc2c(c3c1OC(C)(C)C3)C(c1cccc(N3CCN(CC(N)=O)S3(=O)=O)c1)=NC(C)(C)C2,206 to 208
3,C=CCNc1nc(C2C(=O)Nc3ccc(C#N)cc32)c2cn(C3CCCC3)nc2n1 (stereo not given),> 300
4,CC(NC(=O)C=Cc1ccc(Cl)cc1)c1ccc(NS(C)(=O)=O)c(F)c1 (stereo not given),170 to 172
5,CCCCCCCCCCCCCCCCCCC1CC(=O)N(c2ccc(N)cc2O)C1=O (stereo not given),85 to 90
6,c1cncc(-c2cccn3cnnc23)c1,186 to 189
7,O=C(Nc1c(C(O)(C(F)(F)F)C(F)(F)F)ccc2ccccc12)C1CCC1,185 to 186
8,C=C(CC)C(=O)c1ccc(OC2(C(=O)O)CCC2)c(Cl)c1Cl,120
9,O=C/C=C/c1cc2cc(Cl)ccc2[nH]1,207 to 209
10,CCCCc1cc2cc(C(=O)OCC)ccn2c1,47 to 48
11,CO[C@]1(c2csc(S(=O)(=O)c3ccc4c(c3)CC/C4=N\O)c2)CCO[C@@H]1C (racemic),170 to 172
12,CC(C(=O)O)c1ccc(O[Si](C)(C)C(C)(C)C)cc1 (stereo not given),52 to 54
13,Cc1ccc(-c2csc(NS(=O)(=O)c3ccc(C)cc3)n2)cc1,186 to 189
14,COC(=O)c1ccc(Cn2c(C(=O)C3CCN(CCC4(c5ccccc5)CCN(C(=O)c5cc(OC)c(OC)c(OC)c5)C4)CC3)nc3ccccc32)cc1 (stereo not given),92 to 96
15,CCSc1ccc(C(=O)NCc2ccc3c(c2)C(=O)N(C2CCC(=O)NC2=O)C3=O)nc1 (stereo not given),198 to 200
16,COC(=O)C(=CC=Cc1cc([N+](=O)[O-])ccc1Cl)C(=O)OC,167 to 168
17,Cc1cc(Br)c(C)cc1Cl,60 to 64
18,COc1ccc(CC2SC(=O)NC2=O)cc1C(=O)NCc1ccc(C(F)(F)F)cc1 (stereo not given),176 to 178
19,COc1ccc(C)cc1NC(=O)Nc1ccc(N2CCN(C(=O)Nc3ccc(OCC(O)CO)cc3C)CC2)cc1 (stereo not given),148 to 150
20,CNC(=O)C(Cc1ccc(Br)cc1)NC(=O)Nc1n[nH]c(=S)s1 (stereo not given),238 to 241
21,NCCSc1cc(N)c([N+](=O)[O-])cc1N,149
22,COc1ccc2ncc(C#N)c(Nc3ccc4cn[nH]c4c3)c2c1,> 250
23,Cn1c(Cc2ccccc2)noc1=O,105 to 107
24,O=C(N[C@@H]1C2CCN(CC2)[C@H]1Cc1cccnc1)c1cc2ccccc2o1,134 to 139

row,Compound,melting point [°C]
1,Cc1ccc(Cn2nc(C(=O)O)cc2-c2ccc(F)cc2)cc1Cl,120
2,N#CC(CC(=O)c1ccc(Cl)cc1)C(N)=O (stereo not given),160 to 161
3,CC(CN(C)C)C(CNC(N)=O)(c1ccccc1)c1ccccc1 (stereo not given),226 to 228
4,N#Cc1c(N2CCNCC2)c(F)cc2c(=O)c(C(=O)O)cn(C3CC3)c12,> 300
5,CCCCNC(=O)c1nc2cnn(CC)c2nc1OCC,115 to 117
6,CC(C(=O)O)c1ccc(C=C2CCCCC2=O)cc1 (stereo not given),108 to 110
7,CCCCCCC[C@@H](O)[C@@H](NCc1ccccc1)C(=O)O,197 to 199
8,COC(=O)c1ccc(Cn2nnc3ccc(NC(=O)CC4CCCC4)cc32)c(OC)c1,206 to 208
9,Cc1ccc(Br)cc1Cn1c(C=O)nn(C)c1=O,108
10,CC(C)C1(C)NC(c2nc3ccc(Cl)cc3cc2C(=O)O)=NC1=O (stereo not given),234 to 237
11,CCCC1CCC(O)(c2ccc(CCCCc3ccc(C4(O)CCC(CCC)CC4)cc3)cc2)CC1 (stereo not given),136
12,CCOC(=O)c1c(CN(CC)CC)nc2sc3ncccc3c2c1-c1ccc(OC)c(OC)c1,156 to 157
13,CCn1ncnc1COc1nn2c(-c3ccc(F)cc3)nncc2c1-c1ccccc1F,179
14,COC(=O)C1=C(C)NC(c2ncsc2Cl)=NC1c1ccc(F)cc1 (stereo not given),118 to 122
15,C=CCNc1nc(N(CC=C)CC=C)nc2ccc(Cl)cc12,73 to 74
16,CC(C)(C)OC(=O)C[C@H](O)CC#N,63 to 64
17,CN(C)C(=O)c1cc2ccccc2c(-c2ccccc2)n1,114 to 116
18,COC(=O)CC(N)c1cc2ccccc2nc1Cl (stereo not given),103 to 106
19,CCN(CC)C(=O)ON=C(C(=O)N(C)C)C(C)=NOC,59 to 61
20,COc1cc(C=C(C(C)=O)C(C)=O)ccc1O,135 to 137
21,COc1cc2c(cc1/C=C/CCO)[nH]c1cc(-c3ccccc3Cl)c3c(c12)C(=O)NC3=O,271 to 275
22,COc1ccc(-c2c(/C=C/C(=O)Oc3ccc([N+](=O)[O-])cc3)ccc3cc(OC)ccc23)cc1,160 to 161
